US8084456B2, “Pyrazine-based tubulin inhibitors” (YM Biosciences Australia Pty Ltd, priority 2002, dated 2011)

Tests used:
TelJak3 = TelJak3 (Homo sapiens, UniProt P52333); assay: Cellular growth assay (MTT), BaF3 TEL/JAK3 cells; assay type: cell-based; conditions: 40 hr incubation, read-out: TelJak3 (inhibition of 50% of cellular growth)
[1] = system: K562 (Chronic Myeloid Leukemia) cells; assay: Cellular growth assay (MTT), K562; assay type: cell-based; conditions: Homo sapiens, 40 hr incubation, read-out: K562 (inhibition of 50% of cellular growth)
Protocol: (§1) K562 (Chronic Myeloid Leukemia), PC3 (Prostate Cancer), and DU145 (Prostate Cancer) were obtained from the American Type Culture Collection (ATCC). K562 was grown in RPMI, with 10% FBS with Glutamx added. DU145 cells were cultured in DMED, with 10% FBS and Glutamx and MEM non-essential amino acids added. PC3 cells were grown in F12K medium, with 10% FBS and Glutamx and MEM non-essential amino acids added. All cells were grown at 37° C. in 5% CO2.

[2] = system: PC3 (Prostate Cancer) cells; assay: Cellular growth assay (MTT), PC3; assay type: cell-based; conditions: Homo sapiens, PC-3, 40 hr incubation, read-out: PC3 (inhibition of 50% of cellular growth)
Protocol: as §1

Tubulin = Tubulin assay (turbidometric microtubule assembly); assay type: biochemical; conditions: at 50 μM, absorbance at 340 nm, 37° C.
Protocol: Turbidometric assays of microtubule assembly were performed by incubating microtubule protein in cuvettes at 37° C. in a thermostatically controlled spectrophotometer measuring the change in absorbance at 340 nm over time. The microtubule protein was incubated with the each test compound at 0° C. and polymerisation was initiated by addition of 1 mM GTP, prior to heating to 37° C.

TelJak2 = TelJak2 (Homo sapiens, UniProt O60674); assay: Cellular growth assay (MTT), BaF3 TEL/JAK2 cells; assay type: cell-based; conditions: 40 hr incubation, read-out: TelJak2 (inhibition of 50% of cellular growth)
[3] = system: DU145 (Prostate Cancer) cells; assay: Cellular growth assay (MTT), DU145; assay type: cell-based; conditions: Homo sapiens, DU-145, 40 hr incubation, read-out: DU145 (inhibition of 50% of cellular growth)
Protocol: as §1

TelJak3, sequence (P52333 with tags, fused parts or gaps): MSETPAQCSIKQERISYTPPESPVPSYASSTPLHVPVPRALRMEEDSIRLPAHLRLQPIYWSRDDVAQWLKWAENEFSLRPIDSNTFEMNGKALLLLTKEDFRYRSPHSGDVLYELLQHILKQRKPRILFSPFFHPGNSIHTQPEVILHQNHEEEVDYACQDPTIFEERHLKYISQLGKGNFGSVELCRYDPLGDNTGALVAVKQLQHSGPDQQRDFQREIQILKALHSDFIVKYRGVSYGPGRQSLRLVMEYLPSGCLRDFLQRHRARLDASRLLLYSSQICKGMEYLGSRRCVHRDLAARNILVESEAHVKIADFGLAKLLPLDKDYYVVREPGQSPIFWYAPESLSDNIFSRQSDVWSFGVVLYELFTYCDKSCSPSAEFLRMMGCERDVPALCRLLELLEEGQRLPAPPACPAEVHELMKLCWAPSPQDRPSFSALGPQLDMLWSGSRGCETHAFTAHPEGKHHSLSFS
TelJak2, sequence (O60674 with tags, fused parts or gaps): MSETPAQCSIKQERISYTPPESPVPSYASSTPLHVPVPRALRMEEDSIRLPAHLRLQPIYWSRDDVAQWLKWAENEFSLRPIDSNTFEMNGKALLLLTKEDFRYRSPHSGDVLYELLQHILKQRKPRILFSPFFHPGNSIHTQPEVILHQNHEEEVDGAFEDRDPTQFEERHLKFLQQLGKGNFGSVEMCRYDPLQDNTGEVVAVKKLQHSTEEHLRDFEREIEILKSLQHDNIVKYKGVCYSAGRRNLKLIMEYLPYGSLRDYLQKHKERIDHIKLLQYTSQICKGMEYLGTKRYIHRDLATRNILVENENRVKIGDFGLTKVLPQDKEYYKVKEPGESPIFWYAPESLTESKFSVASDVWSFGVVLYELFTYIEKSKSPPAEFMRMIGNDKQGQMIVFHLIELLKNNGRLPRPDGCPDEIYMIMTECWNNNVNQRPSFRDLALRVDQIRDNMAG

Work on `CCCC(Nc1cncc(-c2ccc(O)c(OC)c2)n1)c1ccc(C)cc1` (stereo not drawn) yielded an IC50 (TelJak3) of at most 20 µM, an IC50 [1] of at most 20 µM and an IC50 [2] of at most 20 µM. The “Tubulin (inhibition of tubulin polymerisation)” value (Tubulin) was “+ (inhibited tubulin polymerisation by greater than 50% at 50 μM)”, the IC50 (TelJak2) was at most 20 µM and the IC50 [3] was at most 20 µM.
For `CCCC(Nc1cncc(-c2ccc(O)c(OC)c2)n1)c1cc(OC)cc(OC)c1` (stereo not drawn), the IC50 (TelJak3) was at most 20 µM, the IC50 [1] was at most 20 µM and the IC50 [2] was at most 20 µM. The “Tubulin (inhibition of tubulin polymerisation)” value (Tubulin) was “+ (inhibited tubulin polymerisation by greater than 50% at 50 μM)”, the IC50 (TelJak2) was at most 20 µM and the IC50 [3] was at most 20 µM.
